Laboratory results: patent US4169157A, “Therapeutic preparations for peptic ulcers comprising aliphatic ketone derivative” (Eisai Co., Ltd., priority 1977, dated 1979)
Entries after “also recorded” stand apart in the source; their conditions may differ.

Columns and labels:
histamine ulcer = test: Effect on the Histamine ulcer; format: in vivo, SD strain male rats; settings: 100 mg/kg oral; for inhibition in vivo at 100 mg/kg: read-out: Inhibition rate to the development of the histamine ulcer
Experimental: According to the Okabe et al. method [[…] 26 (1) 89-93 (1975)], the inhibitory effects of the test compounds on the development of ulcer due to the administration of histamine were estimated using SD strain male rats weighing about 350 g as the test animals.
The methods for administration and estimation of the effect of the test compounds are carried out according to the procedure in pharmacological experiment 1.
A dose of the test compounds amounted to 100 mg/kg.
The histamine was administered intraperitoneally to the test animal in an amount of 200 mg/kg as the hydrochloride.
The effect was estimated 4 hours after the administration of the histamine.

subacute aspirin ulcer = test: Effect on subacute aspirin ulcer; format: in vivo, SD strain male rats; settings: for inhibition in vivo at 200 mg/kg: 144 h, read-out: Inhibition rate to the development of the subacute aspirin ulcer; for Inhibitory effect on subacute aspirin ulcer (in words): 200 mg/kg/day for five days
Experimental: Aspirin in amount of 200 mg/kg/day was orally administered to SD strain male rats (body weight of about 250 g, nine weeks old) after abstinence from the food for 24 hours. The rats were fed for one hour, after one hour from said administration, and again abstained from the food. The administration of aspirin was continued for five days in the same schedule as mentioned above. The effect was estimated on the sixth day.
All the test compounds were emulsified with 5% gum arabic solution and one drop of Tween 80. The emulsions were administered continuously for five days, together with aspirin to rat. The dose amounted to 200 mg/kg/day, and the volume of the dose was controlled to 0.5 ml/100 g B. W. The blank test was similarly effected as pharmacological experiment 1.
The effect of the test compound was estimated by finding the value (ulcer index) of the total lengths of erosions developed in the glandular portion of the test animal with respect to the test compounds group and the blank test group, respectively, and calculating from said value the effect of the administration of the test compounds as the inhibition rate.

[1] = system: cold and restraint stress ulcer; test: Effect on the cold and restraint stress ulcer; format: in vivo, SD strain female rats; settings: 200 mg/kg oral; for Inhibition rate to the development of the ulcer (in words): compared with control compound A (Gefarnate); for inhibition in vivo at 200 mg/kg: 2 h, read-out: Inhibition rate to the development of the cold and restraint stress ulcer
Experimental: Preventive effect of the test compounds on the development of the cold and restraint stress ulcer was estimated according to Levine's method [Proc. Soc. Exptl. Biol. Med., 124, 1221 (1967)], using SD strain female rats weighing about 170 g, and being 8-10 weeks old, as test animals.
All test compounds were suspended in 5% gum arabic solution and one drop of Tween 80, and the suspension was orally administered to rat. A dose amounted to 200 mg/kg, and the volume of the administrative dose was controlled to 0.5 ml/100 g B. W. As a blank test, 5% gum arabic solution was administered.
The administration of the test compounds and the blank test were carried out 30 minutes before adopting the cold and restraint stress.
The effect of the test compounds was estimated by finding the value (ulcer index) of the total length of the erosion observed in the glandular portion of the test animals two hours after the cold and restraint stress, and calculating the effect of the administration of said compounds as the inhibition rate of the development of the ulcer from the value. [formula]

indomethacin ulcer = test: Effect on Indomethacin ulcer; format: in vivo, SD strain female rats; settings: for inhibition in vivo at 100 mg/kg: 4 h, read-out: Inhibition rate on the development of indomethacin ulcer
Experimental: The inhibitory effects of the test compounds on the development of the ulcer due to the administration of indomethacin were estimated using SD strain female rats weighing about 200 g as the test animals.
The methods for administration and estimation of the effect of the test compounds are carried out according to the procedure in pharmacological experiment 2.
The dose of the test compound amounted to 100 mg/kg. The indomethacin was orally administered in the dose of 20 mg/kg. The effect was estimated four hours after the administration of indomethacin.

peptic ulcers = test: Therapeutic effect on peptic ulcers (overall result of the pharmacological experiments); format: in vivo, SD strain rats; settings: from the results of the above-described pharmacological experiments
[2] = histamine 200 mg/kg intraperitoneally, 4 hours after histamine, rat
[3] = 200 mg/kg/day for five days together with aspirin 200 mg/kg/day oral, estimated on sixth day, rat
[4] = 30 minutes before stress, ulcer index two hours after stress, rat
[5] = indomethacin 20 mg/kg oral, four hours after indomethacin, rat

Molecule	inhibition in vivo at 100 mg/kg (histamine ulcer; [2])	inhibition in vivo at 200 mg/kg (subacute aspirin ulcer; [3])	Inhibition rate to the development of the ulcer (in words) [1]	inhibition in vivo at 200 mg/kg [1, 4]	Inhibitory effect on the development of the indomethacin ulcer (in words) (indomethacin ulcer; 100 mg/kg)	inhibition in vivo at 100 mg/kg (indomethacin ulcer; [5])	Therapeutic effect on the peptic ulcers (in words) (peptic ulcers)	Effect on the histamine ulcer of rat (in words) (histamine ulcer)	Inhibitory effect on subacute aspirin ulcer (in words) (subacute aspirin ulcer)	Inhibition rate to the development of the histamine ulcer (histamine ulcer; [2])	Inhibition rate to the development of the subacute aspirin ulcer (subacute aspirin ulcer; [3])	Inhibition rate to the development of the cold and restraint stress ulcer [1, 4]	Inhibition rate on the development of indomethacin ulcer (indomethacin ulcer; 100 mg/kg, indomethacin 20 mg/kg oral, four hours after indomethacin, rat)
CC(C)=CCCC(C)=CCCC(C)=CCCC(C)=CCCC(=O)C(C)C [subject compound C, 2,7,11,15,19-pentamethyl-6,10,14,18-eicosatetraene-3-on]	44.7%	50.9%	higher than that of the control compound A	67.1%	Particularly high inhibitory effect	86.7%	high therapeutic effect on the peptic ulcers						
CC(=O)CCC=C(C)CCC=C(C)CCC=C(C)CCC=C(C)C [subject compound B, 6,10,14,18-tetramethyl-5,9,13,17-nonadecatetraene-2-on]	53.8%	73.2%	higher than that of the control compound A; also recorded: particularly the most effective compound	75.7%	Particularly high inhibitory effect	91.3%	high therapeutic effect on the peptic ulcers	more inhibitory effect than that of the control compound	Inhibitory effect was shown				
CCCC(=O)CCC=C(C)CCC=C(C)CCC=C(C)CCC=C(C)C [subject compound F, 8,12,16,20-tetramethyl-7,11,15,19-heneicosatetraene-4-on]	49%	52.7%	higher than that of the control compound A	69.5%	Particularly high inhibitory effect	88.5%	high therapeutic effect on the peptic ulcers	more inhibitory effect than that of the control compound					
CC(=O)CCC=C(C)CCCC(C)CCCC(C)CCCC(C)C (stereo not shown) [subject compound D, 6,10,14,18-tetramethyl-5-nonadecaene-2-on]	35.2%	61.8%	higher than that of the control compound A	72%		75.5%	high therapeutic effect on the peptic ulcers		Inhibitory effect was shown				
CC(=O)C(CC=C(C)CCC=C(C)CCC=C(C)CCC=C(C)C)C(C)=O [subject compound G, 3-acetyl-6,10,14,18-tetramethyl-5,9,13,17-nonadecatetraene-2-on]	40.8%	64.5%	higher than that of the control compound A	70.5%		64.9%	high therapeutic effect on the peptic ulcers						
CC(=O)CCCC(C)CCCC(C)CCCC(C)CCCC(C)C (stereo not shown) [subject compound E, 6,10,14,18-tetramethyl-nonadecane-2-on]	22.4%	48.5%	higher than that of the control compound A	67.8%		71.1%	high therapeutic effect on the peptic ulcers						
CC(C)=CCCC(C)=CCCC(C)=CCCC(=O)OCC=C(C)CCC=C(C)C [control compound A, reference compound]	15.4%	21%		47.2%		45%		no appreciable effect					
6,10,14-trimethyl-5,9,13-octadecatriene-2-on [subject compound A]			higher than that of the control compound A				high therapeutic effect on the peptic ulcers	more inhibitory effect than that of the control compound		50.4%	56.7%	71.4%	75.4%
